Earlier results in patent US8222237B2, “Progestational 3-(6,6-ethylene-17B-hydroxy-3-oxo-17A-pregna-4-ene-17A-yl)propionic acid G-lactones” (Evestra, Inc., priority 2008, dated 2012).

Tests used:
[1] = acidic conditions such as encountered in the gastric environment
[2] = from a single entity tablet
[3] = at various pH values

absolute bioavailability [2]: about 76%
solubility in water [3]: only sparingly soluble
Compound: C[C@]12CCC(=O)C=C1[C@@H]1C[C@@H]1[C@H]1[C@@H]3[C@@H]4C[C@@H]4[C@@]4(CCC(=O)O4)[C@@]3(C)CC[C@@H]12 [drospirenone, 6β,7β,15β,16β-dimethylene-3-oxo-17α-pregn-4-ene-21,17-carbolactone]
isomerization under acidic conditions [1]: undergo isomerization to a form that is inactive
